The text below walks through data of patent US6399641B1, “2H-tetrazole-amide compounds with therapeutic activity as metabotropic glutamate receptor agonists” (Hoffmann-la Roche Inc., priority 2000, dated 2002).

Series [1] concerns the target T1, rat mGlu1a receptor (Rattus norvegicus, UniProt P23385).
T1 construct: expressed in transfected cells; host or cells: EBNA cells (transient transfection)
Description: [Ca2+]i measurement (FLIPR) on mGlu1a transfected EBNA cells. Type of series: cell-based. The note with it: agonist activity, rat mGlu1a transiently transfected EBNA cells, Fluo-3 AM. How it is done: cDNA encoding for rat mGlu1a receptor obtained from Prof. S. Nakanishi (Kyoto, Japan) was transiently transfected into EBNA cells using a procedure described by Schlaeger & Christensen, 1998. [Ca^2+]i measurement were performed on mGlu1a transfected EBNA cells after incubation of the cells with Fluo-3 AM (0.5 μM final concentration) for 1 hour at 37° C. followed by 4 washes with assay buffer (DMEM supplemented with Hank's salt and 20 mM HEPES). [Ca^2+]i measurement were done using a fluorometric imaging plate reader (FLIPR, Molecular Devices Corporation, La Jolla, Calif., USA). When compounds were evaluated as antagonists they were tested against 10 μM glutamate as agonist.
The inhibition (antagonists) or activation (agonists) curves were fitted with a four parameter logistic equation giving EC50, IC50 and Hill coefficient using the iterative non linear curve fitting software Origin (Microcal Software Inc., Northampton, Mass., USA). E.-J. Schlaeger and K. Christensen Transient gene expression in mammalian cells grown in serum-free suspension culture. Cytotechnology, 30:71-83, 1999.

As a reminder, the melting point is the temperature, or range, at which the solid turns liquid. The EC50 is the concentration giving half of the maximal effect. Lower therefore signals a more potent agent.

T1 sequence (P23385 19-1199): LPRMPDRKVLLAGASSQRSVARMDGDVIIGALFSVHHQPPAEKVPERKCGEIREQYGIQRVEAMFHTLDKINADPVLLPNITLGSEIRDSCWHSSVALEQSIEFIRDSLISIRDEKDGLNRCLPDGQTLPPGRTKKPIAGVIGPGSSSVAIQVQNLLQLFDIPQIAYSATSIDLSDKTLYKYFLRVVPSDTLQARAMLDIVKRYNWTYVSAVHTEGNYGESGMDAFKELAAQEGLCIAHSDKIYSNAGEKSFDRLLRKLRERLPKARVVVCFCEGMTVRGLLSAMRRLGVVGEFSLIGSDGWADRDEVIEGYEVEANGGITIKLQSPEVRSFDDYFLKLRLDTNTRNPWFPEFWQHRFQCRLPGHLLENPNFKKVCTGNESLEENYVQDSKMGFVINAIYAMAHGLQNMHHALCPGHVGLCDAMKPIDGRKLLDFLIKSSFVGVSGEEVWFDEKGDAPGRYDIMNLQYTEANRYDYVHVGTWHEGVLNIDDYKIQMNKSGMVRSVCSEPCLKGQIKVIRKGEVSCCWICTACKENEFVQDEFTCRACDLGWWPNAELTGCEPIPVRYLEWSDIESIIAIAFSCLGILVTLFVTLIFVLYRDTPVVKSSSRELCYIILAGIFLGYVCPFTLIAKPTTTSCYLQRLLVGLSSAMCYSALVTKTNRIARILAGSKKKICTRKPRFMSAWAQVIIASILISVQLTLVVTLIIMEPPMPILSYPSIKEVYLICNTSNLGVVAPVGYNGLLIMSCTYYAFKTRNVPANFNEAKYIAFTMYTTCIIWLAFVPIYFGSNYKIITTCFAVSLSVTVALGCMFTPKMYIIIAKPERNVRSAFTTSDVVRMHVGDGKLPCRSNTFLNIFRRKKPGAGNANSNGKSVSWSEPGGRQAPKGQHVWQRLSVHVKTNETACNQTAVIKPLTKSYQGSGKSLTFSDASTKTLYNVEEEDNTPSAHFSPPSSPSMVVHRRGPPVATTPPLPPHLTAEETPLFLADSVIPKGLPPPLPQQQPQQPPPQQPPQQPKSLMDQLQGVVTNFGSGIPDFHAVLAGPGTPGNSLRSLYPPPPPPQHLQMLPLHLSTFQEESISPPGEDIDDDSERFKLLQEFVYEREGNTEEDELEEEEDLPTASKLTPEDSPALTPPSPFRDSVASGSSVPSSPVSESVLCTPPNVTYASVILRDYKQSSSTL

Regarding `CCn1nnc(NC(=O)C2c3ccccc3Oc3ccccc32)n1` [Example 4, 9H-Xanthene-9-carboxylic acid (2-ethyl-2H-tetrazol-5-yl)-amide], the melting point is 228 °C (dec.). Turning to `CC(C)n1nnc(NC(=O)C2c3ccccc3Oc3ccccc32)n1` [Example 8, 9H-Xanthene-9-carboxylic acid (2-isopropyl-2H-tetrazol-5-yl)-amide], the EC50 in series [1] came out at 0.045 µM. For `O=C(Nc1nnn(CC2CC2)n1)C(c1ccccc1)c1ccccc1` [Example 5, N-(2-Cyclopropylmethyl-2H-tetrazol-5-yl)-2,2-diphenyl-acetamide], the melting point was in the range of 147 to 148 °C. Still for that read-out and setting: under `CCCn1nnc(NC(=O)C2c3ccccc3Oc3ccccc32)n1` [Example 12, 9H-Xanthene-9-carboxylic acid (2-propyl-2H-tetrazol-5-yl)-amide] stands 208 to 209 °C. On the same count and under the same terms, the value for `N#CCn1nnc(NC(=O)C2c3ccccc3Oc3ccccc32)n1` [Example 20, 9H-Xanthene-9-carboxylic acid (2-cyanomethyl-2H-tetrazol-5-yl)-amide] was 204 to 205 °C; that for `COC(=O)Cn1nnc(NC(=O)C(c2ccccc2)c2ccccc2)n1` [Example 21, (5-Diphenylacetylamino-tetrazol-2-yl)-acetic acid methyl ester] was 168 to 169 °C; that for `CCn1nnc(NC(=O)C(c2ccccc2)c2ccccc2)n1` [Example 3, N-(2-Ethyl-2H-tetrazol-5-yl)-2,2-diphenyl-acetamide] was 169 to 170 °C.

As for `CC(C)(C)n1nnc(NC(=O)C2c3ccccc3Oc3ccccc32)n1` [Example 16, 9H-Xanthene-9-carboxylic acid (2-tert-butyl-2H-tetrazol-5-yl)-amide], the melting point was in the range of 230 to 231 °C. Still for that read-out and setting: the value for `O=C(Nc1nnn(C(F)F)n1)C(c1ccccc1)c1ccccc1` [Example 17, N-(2-Difluoromethyl-2H-tetrazol-5-yl)-2,2-diphenyl-acetamide] was 143 to 145 °C; that for `CCn1nnc(NC(=O)C2c3ccccc3Oc3c(OC)cccc32)n1` (racemic) [Example 28, (RS)-4-Methoxy-9H-xanthene-9-carboxylic acid (2-ethyl-2H-tetrazol-5-yl)-amide] was 239 to 240 °C (dec.). Molecule `O=C(Nc1nnn(C(F)F)n1)C1c2ccccc2Oc2ccccc21` [Example 18, 9H-Xanthene-9-carboxylic acid (2-difluoromethyl-2H-tetrazol-5-yl)-amide] displayed a melting point of 168 to 169 °C. As for `N#CCn1nnc(NC(=O)C(c2ccccc2)c2ccccc2)n1` [Example 19, N-(2-Cyanomethyl-2H-tetrazol-5-yl)-2,2-diphenyl-acetamide], the melting point was 173 to 174 °C. Regarding `CCn1nnc(NC(=O)C2c3ccccc3Oc3cccc(OC)c32)n1` (racemic) [Example 26, (RS)-1-Methoxy-9H-xanthene-9-carboxylic acid (2-ethyl-2H-tetrazol-5-yl)-amide], the melting point is 259 to 260 °C (dec.). As for `Cn1nnc(NC(=O)C2c3ccccc3Oc3ccccc32)n1` [Example 2, 9-Xanthene-9-carboxylic acid (2-methyl-2H-tetrazol-5-yl)-amide], the melting point is 247 °C (dec.). Also, a half-maximal response in series [1] (EC50) required 0.18 µM.

Take `CC(C)n1nnc(NC(=O)C(c2ccccc2)c2ccccc2)n1` [Example 7, N-(2-Isopropyl-2H-tetrazol-5-yl)-2,2-diphenyl-acetamide]: the melting point is 175 to 177 °C. The EC50 in series [1] was determined as 0.1 µM. Taken in the same sequence, the figures for `O=C(Nc1nnn(CC(F)(F)F)n1)C1c2ccccc2Oc2ccccc21` [Example 10, 9H-Xanthene-9-carboxylic acid [2-(2,2,2-trifluoro-ethyl)-2H-tetrazol-5-yl]-amide] were 209 to 210 °C and 0.17 µM. Take “9H-Thioxanthene-9-carboxylic acid (2-ethyl-2H-tetrazol-5-yl)-amide [Example 25]”: the EC50 in series [1] worked out at 1.39 µM. As for `CCn1nnc(NC(=O)C2c3ccccc3Cc3ccccc32)n1` [Example 23, 9,10-Dihydro-anthracene-9-carboxylic acid (2-ethyl-2H-tetrazol-5-yl)-amide], the melting point fell in the range of 206 to 207 °C. `CCn1nnc(NC(=O)C2c3ccccc3Oc3ccc(OC)cc32)n1` (racemic) [Example 27, (RS)-2-Methoxy-9H-xanthene-9-carboxylic acid (2-ethyl-2H-tetrazol-5-yl)-amide]: the melting point is 208 to 210 °C (dec.). In series [1], this molecule had an EC50 of 0.19 µM. `O=C(Nc1nnn(CC2CC2)n1)C1c2ccccc2Oc2ccccc21` [Example 6, 9H-Xanthene-9-carboxylic acid (2-cyclopropylmethyl-2H-tetrazol-5-yl)-amide] had a melting point of 222 to 224 °C. Molecule `O=C(Nc1nnn(CC(F)(F)F)n1)C(c1ccccc1)c1ccccc1` [Example 9, 2,2-Diphenyl-N-[2-(2,2,2-trifluoro-ethyl)-2H-tetrazol-5-yl]-acetamide] came in with a melting point of 146 to 148 °C. Further, the EC50 in series [1] is 2 µM.

`CCn1nnc(NC(=O)C2c3ccccc3COc3ccccc32)n1` (racemic) [Example 24, (RS)-6,11 -Dihydro-dibenzo[b,e]oxepine-11-carboxylic acid (2-ethyl-2H-tetrazol-5-yl)-amide]: the melting point was in the range of 158 to 159 °C. Further, the EC50 in series [1] was 0.47 µM.

`Cn1nnc(NC(=O)C(c2ccccc2)c2ccccc2)n1` [Example 1, N-(2-Methyl-2H-tetrazol-5-yl)-2,2-diphenyl-acetamide]: the melting point was 218 °C (dec.). In series [1], this molecule yielded an EC50 of 0.22 µM. Turning to `COCn1nnc(NC(=O)C2c3ccccc3Oc3ccccc32)n1` [Example 14, 9H-Xanthene-9-carboxylic acid (2-methoxymethyl-2H-tetrazol-5-yl)-amide], the melting point lay within 221 to 222 °C. Still for that read-out and setting: under `COC(=O)Cn1nnc(NC(=O)C2c3ccccc3Oc3ccccc32)n1` [Example 22, {5-[(9H-Xanthene-9-carbonyl)-amino]-tetrazol-2-yl}-acetic acid methyl ester] stands 243 to 244 °C; under `COCn1nnc(NC(=O)C(c2ccccc2)c2ccccc2)n1` [Example 13, N-(2-Methoxymethyl-2H-tetrazol-5-yl)-2,2-diphenyl-acetamide], 127 to 128 °C; under `CC(C)(C)n1nnc(NC(=O)C(c2ccccc2)c2ccccc2)n1` [Example 15, N-(2-tert-Butyl-2H-tetrazol-5-yl)-2,2-diphenyl-acetamide], 191 to 192 °C. Consider `CCCn1nnc(NC(=O)C(c2ccccc2)c2ccccc2)n1` [Example 11, 2,2-Diphenyl-N-(2-propyl-2H-tetrazol-5-yl)-acetamide], for which the melting point lay in the range of 124 to 125 °C.
